Source: PubChem BioAssay AID743102 (Vanderbilt Specialized Chemistry Center, 2013)
Active and inactive are the calls of the source.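 Rule for the calls: active = human M5 calcium response above 60% of the acetylcholine maximum, marking a potentiator (some results past the limit were not filed as active); inactive = the rest.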

Target: Muscarinic acetylcholine receptor M5 (Homo sapiens) (UniProt P08912)
Assay: M5 positive allosteric modulator potency, confirmation, cell-based, CHO-K1 hM5, Fluo-4 calcium flux, concentration-response (AID 743102)
Details: ACh EC20 PAM; for % ACh max: active compounds read high; for % ACh max response: at 30 µM (top of the series)

Muscarinic acetylcholine receptor M5 (Homo sapiens), sequence (P08912 whole entry, looked up): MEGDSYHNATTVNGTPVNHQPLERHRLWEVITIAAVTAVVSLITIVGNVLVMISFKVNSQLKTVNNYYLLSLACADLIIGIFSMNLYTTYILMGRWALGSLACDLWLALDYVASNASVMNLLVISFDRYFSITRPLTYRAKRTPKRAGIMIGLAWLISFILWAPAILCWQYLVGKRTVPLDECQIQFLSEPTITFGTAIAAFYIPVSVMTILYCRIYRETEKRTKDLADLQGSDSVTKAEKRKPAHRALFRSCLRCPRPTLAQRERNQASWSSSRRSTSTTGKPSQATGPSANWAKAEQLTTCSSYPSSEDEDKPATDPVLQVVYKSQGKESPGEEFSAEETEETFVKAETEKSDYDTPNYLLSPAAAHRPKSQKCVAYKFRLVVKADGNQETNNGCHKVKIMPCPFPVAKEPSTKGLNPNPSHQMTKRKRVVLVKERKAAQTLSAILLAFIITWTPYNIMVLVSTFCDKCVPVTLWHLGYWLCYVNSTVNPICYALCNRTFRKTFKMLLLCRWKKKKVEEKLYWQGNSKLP

Compound | EC50 [nM] | other results
CCN(C(=O)C1CCN(S(=O)(=O)c2ccc3cn[nH]c3c2)CC1)C(C)c1ccccn1 (centres undefined) |  | % ACh max: inactive
O=C(C1CCN(S(=O)(=O)c2ccc3cn[nH]c3c2)CC1)N(Cc1ccccc1C(F)(F)F)C1CC1 |  | % ACh max response: inactive
CCN(Cc1ccccc1C#N)C(=O)C1CCN(S(=O)(=O)c2ccc3cn[nH]c3c2)CC1 | 7020 | 
[2H]C([2H])(C)N(C(=O)C1CCN(S(=O)(=O)c2ccc3cn[nH]c3c2)CC1)[C@H](C)c1ccccc1 | 530 | 
CCN(Cc1ccccc1C)C(=O)C1CCN(S(=O)(=O)c2ccc3cn[nH]c3c2)CC1 | 940 | 
CCN(Cc1ccccc1)C(=O)C1CCN(S(=O)(=O)c2ccc3ncccc3c2)CC1 |  | % ACh max: inactive
O=C(C1CCN(S(=O)(=O)c2ccc3[nH]ncc3c2)CC1)N(CCO)Cc1ccccc1C(F)(F)F |  | % ACh max: inactive
CCN(C(=O)C1CCN(S(=O)(=O)c2ccc3[nH]ncc3c2)CC1)[C@H](C)c1ccccc1C(F)(F)F | 4060 | 
CCN(Cc1cccc(F)c1)C(=O)C1CCN(S(=O)(=O)c2ccc3cn[nH]c3c2)CC1 | 1270 | 
O=C(C1CCN(S(=O)(=O)c2ccc3c(c2)OCCO3)CC1)N1CCc2ccccc2C1 |  | % ACh max response: inactive
CCN(Cc1cccc(OC)c1)C(=O)C1CCN(S(=O)(=O)c2ccc3cn[nH]c3c2)CC1 | 2690 | 
CCN(Cc1ccccc1)C(=O)C1CCN(S(=O)(=O)c2ccc(OC)c(OC)c2)CC1 |  | % ACh max: inactive
O=C1N(Cc2ccccc2)CCC12CCN(S(=O)(=O)c1ccc3c(c1)OCCO3)CC2 |  | % ACh max response: inactive
CCN(Cc1ccccc1OC(F)(F)F)C(=O)C1CCN(S(=O)(=O)c2ccc3cn[nH]c3c2)CC1 | 3430 | 
CCN(C(=O)C1CCN(S(=O)(=O)c2cc(F)c(F)c(F)c2)CC1)[C@H](C)c1ccccc1 | 2540 | 
CCN(Cc1ccccc1)C(=O)C1CCN(S(=O)(=O)c2ccc(OC)cc2)CC1 | 3570 | 
CCN(Cc1ccccc1)C(=O)C1CCN(S(=O)(=O)c2ccccc2)CC1 | 5370 | 
CCN(Cc1ccccc1C(F)(F)F)C(=O)C1CN(S(=O)(=O)c2ccc3[nH]ncc3c2)C1 |  | % ACh max response: inactive
CCN(Cc1cccc(Cl)c1)C(=O)C1CCN(S(=O)(=O)c2ccc3cn[nH]c3c2)CC1 | 1670 | 
CCN(Cc1ccccc1)C(=O)C1CCN(S(=O)(=O)c2ccc(OC(F)(F)F)cc2)CC1 | 6100 | 
CCN(Cc1ccccc1)C(=O)C1CCN(S(=O)(=O)c2ccc(C(F)(F)F)cc2)CC1 |  | % ACh max: inactive
CCN(Cc1ccc(OC)cc1)C(=O)C1CCN(S(=O)(=O)c2ccc3cn[nH]c3c2)CC1 |  | % ACh max: inactive
C[C@@H](NC(=O)C1CCN(S(=O)(=O)c2ccc3[nH]ncc3c2)CC1)c1ccccc1 |  | % ACh max response: inactive
CCN(C(=O)Cc1ccccc1)C1CCN(S(=O)(=O)c2ccc(OC)cc2)CC1 |  | % ACh max response: inactive
CCN(Cc1ccccc1OC)C(=O)C1CCN(S(=O)(=O)c2ccc3cn[nH]c3c2)CC1 | 7090 | 
CCN(Cc1ccccc1C(F)(F)F)C(=O)C1(F)CCN(S(=O)(=O)c2ccc3[nH]ncc3c2)CC1 | 430 | 
CCN(Cc1cccc(C(F)(F)F)c1)C(=O)C1CCN(S(=O)(=O)c2ccc3cn[nH]c3c2)CC1 |  | % ACh max: inactive

Compound | EC50 [nM] | other results
CCN(Cc1ccccc1)C(=O)C1CCN(S(=O)(=O)c2ccc(C)cc2)CC1 | 5450 | 
O=C(NCc1ccccc1)C1CCN(S(=O)(=O)c2ccc3c(c2)OCCO3)CC1 |  | % ACh max response: inactive
COc1ccc(S(=O)(=O)N2CCC3(CCN(Cc4ccccc4)C3=O)CC2)cc1 |  | % ACh max response: inactive
CCCN(Cc1ccccc1C(F)(F)F)C(=O)C1CCN(S(=O)(=O)c2ccc3[nH]ncc3c2)CC1 | 160 | 
CCN(C(=O)C1CCN(S(=O)(=O)c2ccc3occc3c2)CC1)[C@H](C)c1ccccc1 | 920 | 
C=CCN(Cc1ccccc1C(F)(F)F)C(=O)C1CCN(S(=O)(=O)c2ccc3[nH]ncc3c2)CC1 | 1860 | 
CCN(Cc1ccccc1)C(=O)C1CCN(S(=O)(=O)c2cccc(Cl)c2)CC1 | 4810 | 
CCN(C(=O)C1CCN(S(=O)(=O)c2ccc3c(c2)CCO3)CC1)[C@H](C)c1ccccc1 | 980 | 
CCN(C(=O)C1CCN(S(=O)(=O)c2ccc(OC)cc2)CC1)[C@H](C)c1ccccc1 | 1080 | 
CCN(Cc1ccccc1)C(=O)[C@@H]1CCCN(S(=O)(=O)c2ccc(OC)cc2)C1 |  | % ACh max response: inactive
CCN(Cc1ccccc1)C(=O)C1CCN(S(=O)(=O)c2ccc3cn[nH]c3c2)CC1 | 2090 | 
CCN(C(=O)C1CCN(S(=O)(=O)c2ccc3[nH]ncc3c2)CC1)[C@H](C)c1ccccc1 | 770 | 
CCN(Cc1ccccn1)C(=O)C1CCN(S(=O)(=O)c2ccc3cn[nH]c3c2)CC1 |  | % ACh max: inactive
CCCc1ccc(S(=O)(=O)N2CCC(C(=O)N(CC)Cc3ccccc3)CC2)cc1 | 3230 | 
CCN(Cc1ccccc1C(F)(F)F)C(=O)C1CCN(S(=O)(=O)c2ccc3cn[nH]c3c2)CC1 | 420 | 
CCN(Cc1ccccc1C(F)(F)F)C(=O)C1C2CN(S(=O)(=O)c3ccc4[nH]ncc4c3)CC21 (centres undefined) |  | % ACh max response: inactive
CCN(C(=O)C1CCN(S(=O)(=O)c2ccc3cn[nH]c3c2)CC1)[C@H](C)c1ccccc1 | 830 | 
CCN(Cc1ccccc1)C(=O)C1CCN(S(=O)(=O)c2ccc(N3CCOCC3)nc2)CC1 |  | % ACh max: inactive
CCN(C(=O)C1CCN(S(=O)(=O)c2ccc3occc3c2)CC1)[C@H](C)c1ccccc1C(F)(F)F |  | % ACh max response: inactive
CN(C)C(=O)C1(Cc2ccccc2)CCN(S(=O)(=O)c2ccc3occc3c2)CC1 |  | % ACh max response: inactive
CCN(Cc1ccccc1)C(=O)C1CCN(S(=O)(=O)c2ccc3c(c2)OCCO3)CC1 | 12300 | 
CCN(Cc1ccccc1)C(=O)C1CCN(S(=O)(=O)c2ccc3nsnc3c2)CC1 | 5230 | 
CCN(Cc1ccccc1)C(=O)C1CCN(S(=O)(=O)c2ccc3occc3c2)CC1 | 1400 | 
CCN(Cc1ccccc1)C(=O)C1CCN(S(=O)(=O)c2ccc3[nH]ncc3c2)CC1 | 1660 | 
O=C(C1CCN(S(=O)(=O)c2ccc3[nH]ncc3c2)CC1)N(CCF)Cc1ccccc1C(F)(F)F | 1320 | 
CC(C)N(Cc1ccccc1C(F)(F)F)C(=O)C1CCN(S(=O)(=O)c2ccc3[nH]ncc3c2)CC1 |  | % ACh max: inactive
CCN(Cc1ccccc1)C(=O)C1CCN(S(C)(=O)=O)CC1 |  | % ACh max response: inactive

Compound | EC50 [nM] | other results
O=C(C1CCN(S(=O)(=O)c2ccc3[nH]ncc3c2)CC1)N(Cc1ccccc1C(F)(F)F)C1CC1 |  | % ACh max response: inactive
CCN(C(=O)C1CCN(S(=O)(=O)c2ccc(OC)cc2)CC1)[C@@H](C)c1ccccc1 |  | % ACh max response: inactive
CCN(Cc1ccccc1)C(=O)C1CCN(S(=O)(=O)c2ccc(OC(F)F)cc2)CC1 | 5050 | 
CCN(Cc1ccccc1)C(=O)C1CCN(S(=O)(=O)c2cccc3c2OCCO3)CC1 |  | % ACh max: inactive
CCN(Cc1ccccc1F)C(=O)C1CCN(S(=O)(=O)c2ccc3cn[nH]c3c2)CC1 | 2080 | 
CCN(Cc1ccccc1)C(=O)C1CCN(S(=O)(=O)c2cccc(C(F)(F)F)c2)CC1 |  | % ACh max: inactive
CCN(Cc1ccccc1)C(=O)C1CCN(S(=O)(=O)c2ccc(C)s2)CC1 | 7480 | 
COc1ccc(S(=O)(=O)N2CCC(C(=O)N(C)Cc3ccccc3)CC2)cc1 |  | % ACh max: inactive
CCN(Cc1cccc(C)c1)C(=O)C1CCN(S(=O)(=O)c2ccc3cn[nH]c3c2)CC1 | 1000 | 
CCN(Cc1ccccc1Cl)C(=O)C1CCN(S(=O)(=O)c2ccc3[nH]ncc3c2)CC1 | 340 | 
CCN(Cc1ccccc1)C(=O)[C@H]1CCCN(S(=O)(=O)c2ccc(OC)cc2)C1 |  | % ACh max response: inactive
CCN(Cc1ccccc1C(F)(F)F)C(=O)C1CCN(S(=O)(=O)c2ccc3[nH]ncc3c2)CC1 | 230 | 
CCc1ccc(S(=O)(=O)N2CCC(C(=O)N(CC)Cc3ccccc3)CC2)cc1 | 3750 | 
CCN(C(=O)C1CCN(S(=O)(=O)c2ccc3c(c2)CCC3)CC1)[C@H](C)c1ccccc1 | 760 | 
CCN(Cc1ccccc1)C(=O)C1CCN(S(=O)(=O)c2cccc(OC)c2)CC1 | 3250 | 
CCN(Cc1ccccc1C(F)(F)F)C(=O)C1CCN(S(=O)(=O)c2ccc(-n3cccn3)cc2)CC1 | 1260 | 
COc1ccc(S(=O)(=O)N2CCC(C(=O)NCc3ccccc3)CC2)cc1 |  | % ACh max response: inactive
CCN(C(=O)Cc1ccccc1)C1CCN(S(=O)(=O)c2ccc3c(c2)OCCO3)CC1 |  | % ACh max response: inactive
CCN(Cc1ccccc1)C(=O)C1CCN(S(=O)(=O)c2cccc(OC(F)F)c2)CC1 | 3980 | 
CCN(Cc1ccccc1)C(=O)C1CCN(S(=O)(=O)c2ccc(Br)cc2)CC1 | 3920 | 
CCN(Cc1ccccc1)C(=O)C1CCN(S(=O)(=O)C2CC2)CC1 |  | % ACh max response: inactive
CCN(C(=O)C1CCN(S(=O)(=O)c2ccc(-n3cccn3)cc2)CC1)[C@H](C)c1ccccc1 | 700 | 
CCN(Cc1ccccc1)C(=O)C1CCN(S(=O)(=O)c2ccc(C(C)=O)cc2)CC1 | 6550 | 
CCN(Cc1cccc(C#N)c1)C(=O)C1CCN(S(=O)(=O)c2ccc3cn[nH]c3c2)CC1 |  | % ACh max: inactive
CCN(Cc1ccccc1Cl)C(=O)C1CCN(S(=O)(=O)c2ccc3cn[nH]c3c2)CC1 | 430 | 
